Experimental data published in the NIST ThermoML archive (doi:10.1021/je200195q).
± gives the expanded uncertainty stated by the source.

Test: activity coefficient (dimensionless); of the first substance listed, at infinite dilution; xn = mol fraction of the nth substance listed
Conditions: 101 kPa, Liquid, Chromatography, x1 = 0

SMILES: CCCCCCCCCCCCC [tridecane] + CCCCn1cc[n+](C)c1.O=S(=O)([N-]S(=O)(=O)C(F)(F)C(F)(F)F)C(F)(F)C(F)(F)F
- activity coefficient (322.55 K): 111 ± 7.6
- activity coefficient (342.75 K): 78.1 ± 5.3
- activity coefficient (363.65 K): 68.9 ± 4.7

SMILES: CCCCCCCCCCCCC [tridecane] + CCn1cc[n+](C)c1.CS(=O)(=O)[O-]
- activity coefficient (312.55 K): 3380 ± 230
- activity coefficient (322.45 K): 3280 ± 230
- activity coefficient (332.45 K): 3070 ± 210

SMILES: CCN(CC)CC [triethylamine] + CCCCCCCCCCn1cc[n+](CCCCCCCCCC)c1C.O=S(=O)([N-]S(=O)(=O)C(F)(F)F)C(F)(F)F
- activity coefficient (323.1 K): 3.67 ± 0.25
- activity coefficient (333.15 K): 3.17 ± 0.22
- activity coefficient (343.15 K): 2.86 ± 0.2

SMILES: CCN(CC)CC [triethylamine] + CCCCCC[n+]1ccn(C)c1.FC(F)(F)C(F)(F)[P-](F)(F)(F)(C(F)(F)C(F)(F)F)C(F)(F)C(F)(F)F
- activity coefficient (312.8 K): 2.09 ± 0.14
- activity coefficient (332.85 K): 1.96 ± 0.13
- activity coefficient (354.65 K): 1.76 ± 0.12

SMILES: CCN(CC)CC [triethylamine] + CCCCn1cc[n+](C)c1.O=S(=O)([N-]S(=O)(=O)C(F)(F)C(F)(F)F)C(F)(F)C(F)(F)F
- activity coefficient (322.55 K): 2.73 ± 0.19
- activity coefficient (342.75 K): 3.61 ± 0.25
- activity coefficient (362.65 K): 3.27 ± 0.22

SMILES: CCN(CC)CC [triethylamine] + CCn1cc[n+](C)c1.CS(=O)(=O)[O-]
- activity coefficient (312.55 K): 8.32 ± 0.57
- activity coefficient (322.45 K): 14.3 ± 0.98
- activity coefficient (332.45 K): 18.8 ± 1.3

SMILES: CCCCCCCCCCC [undecane] + CCCCCC[n+]1ccn(C)c1.FC(F)(F)C(F)(F)[P-](F)(F)(F)(C(F)(F)C(F)(F)F)C(F)(F)C(F)(F)F
- activity coefficient (312.8 K): 31 ± 2.1
- activity coefficient (332.85 K): 25.5 ± 1.7
- activity coefficient (354.65 K): 19.9 ± 1.4

SMILES: CCCCCCCCCCC [undecane] + CCCCn1cc[n+](C)c1.O=S(=O)([N-]S(=O)(=O)C(F)(F)C(F)(F)F)C(F)(F)C(F)(F)F
- activity coefficient (322.55 K): 57.3 ± 3.9
- activity coefficient (342.75 K): 45.9 ± 3.1
- activity coefficient (362.65 K): 37.8 ± 2.6
